Reference: patent US20260103466A1, “PROCESS FOR THE MANUFACTURE OF SALTS AND CRYSTALLINE FORMS OF 1-(8-BROMOPYRIDO[2,3-E][1,2,4]TRIAZOLO[4,3-A]PYRAZIN-4-YL)-NMETHYLAZETIDIN-3-AMINE AND NOVEL CRYSTALLINE FORMS” (JW PHARMACEUTICAL CORPORATION, priority 2022, published 2026)

Assays:
[1] = Solubility in various solvents; assay type: physicochemical
[2] = Stability towards hydrolysis and pH during processing in aqueous environment; assay type: physicochemical; conditions: compared to the hydrogen sulfate salt; for Stability towards hydrolysis: processing in aqueous, elevated temperatures at least as high as 50° C.
[3] = Solid form stability on drying and in water-containing environments; assay type: physicochemical; conditions: for Stability during gentle drying: polymorphic forms of the methyl sulfate salt
[4] = test system: inflammatory cells such as mast cells and eosinophils; conditions: cited from earlier work
[5] = target: histamine 4 receptor (Homo sapiens, UniProt Q9H3N8); conditions: cited from earlier work
Sequence of histamine 4 receptor (Q9H3N8 whole entry): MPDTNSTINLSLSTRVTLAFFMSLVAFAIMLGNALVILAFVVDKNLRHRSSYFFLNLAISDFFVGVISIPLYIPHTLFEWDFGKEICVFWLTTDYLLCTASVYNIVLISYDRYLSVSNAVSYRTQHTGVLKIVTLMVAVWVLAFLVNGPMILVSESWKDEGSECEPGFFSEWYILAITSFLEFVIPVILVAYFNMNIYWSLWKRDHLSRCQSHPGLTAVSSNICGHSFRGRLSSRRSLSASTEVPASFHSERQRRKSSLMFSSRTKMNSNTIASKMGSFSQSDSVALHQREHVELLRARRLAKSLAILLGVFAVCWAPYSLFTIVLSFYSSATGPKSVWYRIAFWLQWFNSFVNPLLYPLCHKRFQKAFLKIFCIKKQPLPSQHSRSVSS

1-(8-bromopyrido[2,3-e][1,2,4]triazolo[4,3-a]pyrazin-4-yl)-N-methylazetidin-3-amine ethyl sulfate
Solubility ([1]; solvent 1,3-dimethyl-2-imidazolidinone, ethyl sulfate form A): 17000 µg/mL | Solubility ([1]; solvent 1-propanol, ethyl sulfate form A): 37 µg/mL | Solubility ([1]; solvent 2-propanol, ethyl sulfate form A): 4.7 µg/mL | Solubility ([1]; solvent Acetone, ethyl sulfate form A): 6.2 µg/mL | Solubility ([1]; solvent Acetonitrile, ethyl sulfate form A): 45 µg/mL | Solubility ([1]; solvent Cyclohexane, ethyl sulfate form A): <3.5 µg/mL | Solubility ([1]; solvent DCM, ethyl sulfate form A): <3.5 µg/mL | Solubility ([1]; solvent DMF, ethyl sulfate form A): 5900 µg/mL | Solubility ([1]; solvent DMSO, ethyl sulfate form A): 76000 µg/mL | Solubility ([1]; solvent EtOAc, ethyl sulfate form A): <3.5 µg/mL | Solubility ([1]; solvent EtOH, ethyl sulfate form A): 120 µg/mL | Solubility ([1]; solvent Isoamyl alcohol, ethyl sulfate form A): 23 µg/mL | Solubility ([1]; solvent MTBE, ethyl sulfate form A): <3.5 µg/mL | Solubility ([1]; solvent MeOH, ethyl sulfate form A): 1600 µg/mL | Solubility ([1]; solvent Methyl ethyl ketone, ethyl sulfate form A): 200 µg/mL | Solubility ([1]; solvent Toluene, ethyl sulfate form A): <3.5 µg/mL | pH in aqueous environment [2]: more neutral | Stability towards hydrolysis [2]: much more stable

1-(8-bromopyrido[2,3-e][1,2,4]triazolo[4,3-a]pyrazin-4-yl)-N-methylazetidin-3-amine methyl sulfate
Solubility (in words) ([1]; in 1-propanol acetonitrile and ethanol): intermediate | Solubility (in words) ([1]; in 1-propanol:H2O (1:5) and DMSO): very high | Solubility (in words) ([1]; in THF, EtOAC, Toluene, MTBE and methyl ethyl ketone): very low | Solubility (in words) ([1]; in a number of solvents): relatively high | Solubility (in words) ([1]; in isoamyl alcohol and 2-propanol): low | Solubility (in words) ([1]; in methanol and DMF): high | Solubility ([1]; solvent 1-propanol/H2O (1:5), solid form A + B): 44000 µg/mL | Solubility ([1]; solvent 1-propanol, solid form B): 50 µg/mL | Solubility ([1]; solvent 2-propanol, solid form A + B): 16 µg/mL | Solubility ([1]; solvent Acetone, solid form B): <3 µg/mL | Solubility ([1]; solvent Acetonitrile, solid form B): 55 µg/mL | Solubility ([1]; solvent DMF, solid form B): 8200 µg/mL | Solubility ([1]; solvent DMSO, solid form A + C): >/=69000 μg/ml | Solubility ([1]; solvent EtOAc, solid form B): <3 µg/mL | Solubility ([1]; solvent EtOH, solid form B): 110 µg/mL | Solubility ([1]; solvent Isoamyl alcohol, solid form A + B): 6.3 µg/mL | Solubility ([1]; solvent MTBE, solid form A + B): <3 µg/mL | Solubility ([1]; solvent MeOH, solid form B): 1600 µg/mL | Solubility ([1]; solvent Methyl ethyl ketone, solid form B): <3 µg/mL | Solubility ([1]; solvent THF, solid form B): <3 µg/mL | Solubility ([1]; solvent Toluene, solid form A + B): <3 µg/mL | pH in aqueous environment [2]: more neutral | Stability towards hydrolysis [2]: much more stable

1-(8-bromopyrido[2,3-e][1,2,4]triazolo[4,3-a]pyrazin-4-yl)-N-methylazetidin-3-amine methyl sulfate monohydrate [form A]
Drying behaviour of crystal lattice ([3]; freeze dryer or vacuum oven at 60° C.): without collapsing the crystal lattice | Stability during gentle drying [3]: stable

CNC1CN(c2nc3ncc(Br)cc3n3cnnc23)C1 [1-(8-bromopyrido[2,3-e][1,2,4]triazolo[4,3-a]pyrazin-4-yl)-N-methylazetidin-3-amine]
effects against histamine induced infiltration of inflammatory cells [4]: suppressive effects | histamine 4 receptor inhibitory effect [5]: strong

CNC1CN(c2nc3ncc(Br)cc3n3cnnc23)C1.COS(=O)(=O)O [Form B, 1-(8-bromopyrido[2,3-e][1,2,4]triazolo[4,3-a]pyrazin-4-yl)-N-methylazetidin-3-amine methyl sulfate anhydrate]
Stability in water-containing environments ([3]; environments containing 60% water): stable | Stability during gentle drying [3]: stable

CNC1CN(c2nc3ncc(Br)cc3n3cnnc23)C1.CS(=O)(=O)O [methane sulfonate salt, 1-(8-bromopyrido[2,3-e][1,2,4]triazolo[4,3-a]pyrazin-4-yl)-N-methylazetidin-3-amine methane sulfonate]
pH in aqueous environment [2]: more neutral | Stability towards hydrolysis [2]: much more stable
